Values quoted from earlier work, collected in patent US8552051B2 (H. L. Hall & Sons Limited, priority 2009, dated 2013).

Tests used:
PDE4 = conditions: Napoletano, M. et al. 2001
5-HT uptake = 5-HT uptake (Homo sapiens, UniProt P31645); conditions: U.S. Pat. No. 6,288,104
5-HT uptake, sequence (P31645 whole entry): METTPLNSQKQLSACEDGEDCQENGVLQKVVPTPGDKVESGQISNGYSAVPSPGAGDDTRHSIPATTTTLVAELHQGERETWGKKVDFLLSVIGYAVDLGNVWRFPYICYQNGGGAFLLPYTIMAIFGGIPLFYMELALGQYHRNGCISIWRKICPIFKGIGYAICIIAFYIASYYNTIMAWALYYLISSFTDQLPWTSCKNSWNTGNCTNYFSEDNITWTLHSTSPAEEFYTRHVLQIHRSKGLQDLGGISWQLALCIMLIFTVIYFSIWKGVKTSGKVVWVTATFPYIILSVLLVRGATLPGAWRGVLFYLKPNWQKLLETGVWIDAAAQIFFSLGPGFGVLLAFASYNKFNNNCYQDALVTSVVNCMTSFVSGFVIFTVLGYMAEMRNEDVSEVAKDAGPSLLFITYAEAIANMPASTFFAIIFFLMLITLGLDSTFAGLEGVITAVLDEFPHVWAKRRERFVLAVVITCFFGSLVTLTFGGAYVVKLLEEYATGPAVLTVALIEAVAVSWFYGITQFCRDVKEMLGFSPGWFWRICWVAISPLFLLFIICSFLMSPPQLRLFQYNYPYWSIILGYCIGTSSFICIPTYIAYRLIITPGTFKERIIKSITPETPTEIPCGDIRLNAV

| SMILES | PDE4 inhibition, result in words (PDE4) | 5-HT uptake inhibitory activity, result in words (5-HT uptake) |
| --- | --- | --- |
| COc1ccc(C23CCC(=O)CC2N(C)CC3)cc1OC.Cl (centres unmarked) [Mesembrine hydrochloride] | weak PDE4 inhibitor | – |
| COc1ccc(C23C=CC(O)CC2N(C)CC3)cc1OC (centres unmarked) [mesembrenol] | – | potent 5-HT uptake inhibitory activity |
